Test results reported in ChEMBL document CHEMBL3045602, “Synthesis and antimicrobial activity of novel derivatives of Biginelli pyrimidines” (2012).
Values after ≈ are worked out from the molar mass of the structure shown.

Experiments:
Type in all cases: functional
Aspergillus niger = test: Antimicrobial activity against Aspergillus niger 5021 after 24 hr by Alamar blue assay; conditions: Aspergillus niger, 5021, 24 h
Pseudomonas aeruginosa = test: Antimicrobial activity against Pseudomonas aeruginosa PTCC 1074 after 24 hr by Alamar blue assay; conditions: PTCC 1074, 24 h
Bacillus subtilis = test: Antimicrobial activity against Bacillus subtilis PTCC 1023 after 24 hr by Alamar blue assay; conditions: PTCC 1023, 24 h
Escherichia coli = test: Antimicrobial activity against Escherichia coli PTCC 1338 after 24 hr by Alamar blue assay; conditions: PTCC 1338, 24 h
Candida albicans = test: Antimicrobial activity against Candida albicans PTCC 5027 after 24 hr by Alamar blue assay; conditions: PTCC 5027, 24 h
Listeria monocytogenes = test: Antimicrobial activity against Listeria monocytogenes PTCC 1165 after 24 hr by Alamar blue assay; conditions: PTCC 1165, 24 h
Salmonella enteritidis = test: Antimicrobial activity against Salmonella enterica subsp. enterica serovar Enteritidis PTCC 1091 after 24 hr by Alamar blue assay; conditions: PTCC 1091, 24 h
Staphylococcus aureus = test: Antimicrobial activity against Staphylococcus aureus PTCC 1337 after 24 hr by Alamar blue assay; conditions: PTCC 1337, 24 h

Row | SMILES | MIC (Aspergillus niger) | MIC (Pseudomonas aeruginosa) | MIC (Bacillus subtilis) | MIC (Escherichia coli) | MIC (Candida albicans) | MIC (Listeria monocytogenes) | MIC (Salmonella enteritidis) | MIC (Staphylococcus aureus)
1 | CC1=C(C(=O)OCC(C)C)C(c2cccs2)NC(S)=N1 (configuration not stated) | > 512 µg/mL | > 512 µg/mL | > 512 µg/mL | 512 µg/mL (≈ 1650 µM) | > 512 µg/mL | 512 µg/mL (≈ 1650 µM) | > 512 µg/mL | 512 µg/mL (≈ 1650 µM)
2 | CC1=C(C(=O)OC(C)C)C(c2cccs2)NC(S)=N1 (configuration not stated) | > 512 µg/mL | > 512 µg/mL | > 512 µg/mL | > 512 µg/mL | > 512 µg/mL | > 512 µg/mL | > 512 µg/mL | > 512 µg/mL
3 | CSc1ncc(C2NC(=O)NC(C)=C2C(=O)Nc2ccc(Cl)cc2)n1Nc1ccccc1 (configuration not stated) | 64 µg/mL (≈ 136 µM) | > 512 µg/mL | > 512 µg/mL | 512 µg/mL (≈ 1090 µM) | 32 µg/mL (≈ 68.2 µM) | > 512 µg/mL | 512 µg/mL (≈ 1090 µM) | > 512 µg/mL
4 | CSc1ncc(C2NC(=O)NC(C)=C2C(=O)Nc2ccccn2)n1Nc1ccccc1 (configuration not stated) | 64 µg/mL (≈ 147 µM) | > 512 µg/mL | > 512 µg/mL | > 512 µg/mL | 32 µg/mL (≈ 73.5 µM) | > 512 µg/mL | > 512 µg/mL | > 512 µg/mL
5 | CSc1ncc(C2NC(=O)NC(C)=C2C(=O)Nc2cccnc2)n1Nc1ccccc1 (configuration not stated) | 64 µg/mL (≈ 147 µM) | 512 µg/mL (≈ 1180 µM) | > 512 µg/mL | 512 µg/mL (≈ 1180 µM) | 32 µg/mL (≈ 73.5 µM) | > 512 µg/mL | > 512 µg/mL | > 512 µg/mL
6 | CC1=C(C(=O)Nc2ccccc2Cl)C(c2cccs2)NC(=O)N1 (configuration not stated) | > 512 µg/mL | > 512 µg/mL | 256 µg/mL (≈ 736 µM) | > 512 µg/mL | > 512 µg/mL | 256 µg/mL (≈ 736 µM) | > 512 µg/mL | 512 µg/mL (≈ 1470 µM)
7 | CC1=C(C(=O)Nc2cccc(Cl)c2)C(c2cccs2)NC(=O)N1 (configuration not stated) | > 512 µg/mL | > 512 µg/mL | 512 µg/mL (≈ 1470 µM) | > 512 µg/mL | > 512 µg/mL | 256 µg/mL (≈ 736 µM) | > 512 µg/mL | 512 µg/mL (≈ 1470 µM)
8 | CC1=C(C(=O)Nc2ccc(Cl)cc2)C(c2cccs2)NC(=O)N1 (configuration not stated) | > 512 µg/mL | 512 µg/mL (≈ 1470 µM) | 512 µg/mL (≈ 1470 µM) | > 512 µg/mL | > 512 µg/mL | 512 µg/mL (≈ 1470 µM) | 512 µg/mL (≈ 1470 µM) | 256 µg/mL (≈ 736 µM)
9 | CC1=C(C(=O)Nc2ccccn2)C(c2cccs2)NC(=O)N1 (configuration not stated) | > 512 µg/mL | 512 µg/mL (≈ 1630 µM) | > 512 µg/mL | > 512 µg/mL | > 512 µg/mL | 512 µg/mL (≈ 1630 µM) | 512 µg/mL (≈ 1630 µM) | 512 µg/mL (≈ 1630 µM)
10 | CC1=C(C(=O)Nc2cccnc2)C(c2cccs2)NC(=O)N1 (configuration not stated) | > 512 µg/mL | 512 µg/mL (≈ 1630 µM) | > 512 µg/mL | > 512 µg/mL | > 512 µg/mL | 512 µg/mL (≈ 1630 µM) | 512 µg/mL (≈ 1630 µM) | > 512 µg/mL
11 | COC(=O)C1=C(C)NC(=O)NC1c1cnc(SC)n1Cc1ccccc1 (configuration not stated) | 256 µg/mL (≈ 687 µM) | 512 µg/mL (≈ 1370 µM) | 512 µg/mL (≈ 1370 µM) | 512 µg/mL (≈ 1370 µM) | 256 µg/mL (≈ 687 µM) | > 512 µg/mL | > 512 µg/mL | 512 µg/mL (≈ 1370 µM)
12 | CCOC(=O)C1=C(C)NC(=O)NC1c1cnc(SC)n1Cc1ccccc1 (configuration not stated) | 64 µg/mL (≈ 166 µM) | 256 µg/mL (≈ 662 µM) | 512 µg/mL (≈ 1320 µM) | 256 µg/mL (≈ 662 µM) | 64 µg/mL (≈ 166 µM) | 512 µg/mL (≈ 1320 µM) | 512 µg/mL (≈ 1320 µM) | > 512 µg/mL
13 | COC(=O)C1=C(C)NC(=O)NC1c1cnc(SC)n1Nc1ccccc1 (configuration not stated) | 128 µg/mL (≈ 343 µM) | 256 µg/mL (≈ 686 µM) | > 512 µg/mL | 512 µg/mL (≈ 1370 µM) | 128 µg/mL (≈ 343 µM) | > 512 µg/mL | 512 µg/mL (≈ 1370 µM) | > 512 µg/mL
14 | CCOC(=O)C1=C(C)NC(=O)NC1c1cnc(SC)n1Nc1ccccc1 (configuration not stated) | 128 µg/mL (≈ 330 µM) | 128 µg/mL (≈ 330 µM) | > 512 µg/mL | 256 µg/mL (≈ 661 µM) | 64 µg/mL (≈ 165 µM) | > 512 µg/mL | 512 µg/mL (≈ 1320 µM) | > 512 µg/mL
15 | CCCCOC(=O)C1=C(C)NC(=S)NC1c1cccs1 (configuration not stated) | > 512 µg/mL | 512 µg/mL (≈ 1650 µM) | 512 µg/mL (≈ 1650 µM) | 256 µg/mL (≈ 825 µM) | > 512 µg/mL | 512 µg/mL (≈ 1650 µM) | > 512 µg/mL | 512 µg/mL (≈ 1650 µM)
16 | CSc1ncc(C2NC(=O)NC(C)=C2C(=O)Nc2ccccc2Cl)n1Cc1ccccc1 (configuration not stated) | 256 µg/mL (≈ 547 µM) | 512 µg/mL (≈ 1090 µM) | > 512 µg/mL | 512 µg/mL (≈ 1090 µM) | 256 µg/mL (≈ 547 µM) | > 512 µg/mL | > 512 µg/mL | > 512 µg/mL
17 | CSc1ncc(C2NC(=O)NC(C)=C2C(=O)Nc2cccc(Cl)c2)n1Cc1ccccc1 (configuration not stated) | 128 µg/mL (≈ 274 µM) | 256 µg/mL (≈ 547 µM) | 256 µg/mL (≈ 547 µM) | > 512 µg/mL | 256 µg/mL (≈ 547 µM) | > 512 µg/mL | 256 µg/mL (≈ 547 µM) | 128 µg/mL (≈ 274 µM)
18 | CSc1ncc(C2NC(=O)NC(C)=C2C(=O)Nc2ccc(Cl)cc2)n1Cc1ccccc1 (configuration not stated) | 256 µg/mL (≈ 547 µM) | 256 µg/mL (≈ 547 µM) | > 512 µg/mL | 256 µg/mL (≈ 547 µM) | 256 µg/mL (≈ 547 µM) | > 512 µg/mL | > 512 µg/mL | 256 µg/mL (≈ 547 µM)
19 | CSc1ncc(C2NC(=O)NC(C)=C2C(=O)Nc2ccccn2)n1Cc1ccccc1 (configuration not stated) | 128 µg/mL (≈ 295 µM) | 256 µg/mL (≈ 589 µM) | > 512 µg/mL | 256 µg/mL (≈ 589 µM) | 64 µg/mL (≈ 147 µM) | > 512 µg/mL | > 512 µg/mL | > 512 µg/mL
20 | CSc1ncc(C2NC(=O)NC(C)=C2C(=O)Nc2cccnc2)n1Cc1ccccc1 (configuration not stated) | 128 µg/mL (≈ 295 µM) | 256 µg/mL (≈ 589 µM) | 512 µg/mL (≈ 1180 µM) | 256 µg/mL (≈ 589 µM) | 128 µg/mL (≈ 295 µM) | > 512 µg/mL | 512 µg/mL (≈ 1180 µM) | 512 µg/mL (≈ 1180 µM)
21 | CSc1ncc(C2NC(=O)NC(C)=C2C(=O)Nc2ccccc2Cl)n1Nc1ccccc1 (configuration not stated) | 128 µg/mL (≈ 273 µM) | 256 µg/mL (≈ 546 µM) | > 512 µg/mL | 256 µg/mL (≈ 546 µM) | 128 µg/mL (≈ 273 µM) | > 512 µg/mL | > 512 µg/mL | > 512 µg/mL
22 | CSc1ncc(C2NC(=O)NC(C)=C2C(=O)Nc2cccc(Cl)c2)n1Nc1ccccc1 (configuration not stated) | 128 µg/mL (≈ 273 µM) | 512 µg/mL (≈ 1090 µM) | > 512 µg/mL | > 512 µg/mL | 128 µg/mL (≈ 273 µM) | > 512 µg/mL | > 512 µg/mL | > 512 µg/mL
23 | O=C(O)c1cn(C2CC2)c2cc(N3CCNCC3)c(F)cc2c1=O [CIPROFLOXACIN] |  |  | 0.06 µg/mL (≈ 0.181 µM) |  |  | 1 µg/mL (≈ 3.02 µM) | 1 µg/mL (≈ 3.02 µM) | 0.5 µg/mL (≈ 1.51 µM)
24 | CC(=O)N1CCN(c2ccc(OCC3COC(Cn4ccnc4)(c4ccc(Cl)cc4Cl)O3)cc2)CC1 (configuration not stated) [KETOCONAZOLE] | 4 µg/mL (≈ 7.53 µM) |  |  |  | 2 µg/mL (≈ 3.76 µM) |  |  | 
